molecular target: human PAD4 (hPAD4) (Homo sapiens, UniProt Q9UM07); test: RFMS human PAD4 functional assay (rapid-fire mass spectrum); type: biochemical; conditions: 5 nM hPAD4 enzyme, 250 μM BAEE, 50 μM Calcium; 30 min preincubation, 90 min reaction at 37° C.
Description: Compounds of the present invention were assayed as inhibitors of PAD4 using the assay protocol described below.
RFMS tinman PAD4 Functional Assay:
Compounds were solubilized in 100% DMSO to achieve a 10 mM compound concentration. Compound stock solutions were stored at RT. A series of dilutions were prepared in DMSO and mixed 8 times with 20 μl, mixing volume. Final top concentration of compound in the assay is 50 μM. […] 1-90 min enzyme/substrate reaction, 30 min reaction with phenyl glyoxal at 37° C. • Stop solution: 40 μl 5% TCA in ACN
0.13 μL of compound solution was added to 13 μL of 10 nM PAD4 in assay buffer. After 30 min 13 μl of 500 μM of BAEE was added in 25 mM hepes, pH 7.5, 5 mM NaCl, 1 mM DTT, 0.2 mg/ml BS A, 0.01% CHAPS, 50 μM Calcium, 5 μM TPEN was added and the reaction incubated for 90 min at 37° C. The enzymatic reaction was quenched by addition of 15 μl of 6.1N TCA, 100% Final Concentration is 20%, 35 μl of 8.5 mM phenyl glyoxal (final concentration 4 mM) is then added and the reaction is incubated for 30 min at 37° C.
After 30 minutes the plates are spun down to remove all precipitate. The enzyme reaction was quenched with an equal volume of methanol containing internal standard (modified citrulline). Samples were loaded onto the Rapid Fire RF300 system (Agilent) wherein they were first sipped for 1000 ms and then directly loaded to a C18 separations cartridge using a mixture of acetonitrile containing 0.01% formic acid for 3000 ms desalting. The flow rate of the mobile phase was 1.5 ml/min.
The dwell time for each transition was set at 200 ms, and the ESI voltage was used at 5500 with a source temperature of 400° C. Extracted ion peaks for each transition were integrated using the Rapid Fire Integrator software. Peak area of analyte was normalized with internal standard).

human PAD4 (hPAD4), sequence (Q9UM07 whole entry): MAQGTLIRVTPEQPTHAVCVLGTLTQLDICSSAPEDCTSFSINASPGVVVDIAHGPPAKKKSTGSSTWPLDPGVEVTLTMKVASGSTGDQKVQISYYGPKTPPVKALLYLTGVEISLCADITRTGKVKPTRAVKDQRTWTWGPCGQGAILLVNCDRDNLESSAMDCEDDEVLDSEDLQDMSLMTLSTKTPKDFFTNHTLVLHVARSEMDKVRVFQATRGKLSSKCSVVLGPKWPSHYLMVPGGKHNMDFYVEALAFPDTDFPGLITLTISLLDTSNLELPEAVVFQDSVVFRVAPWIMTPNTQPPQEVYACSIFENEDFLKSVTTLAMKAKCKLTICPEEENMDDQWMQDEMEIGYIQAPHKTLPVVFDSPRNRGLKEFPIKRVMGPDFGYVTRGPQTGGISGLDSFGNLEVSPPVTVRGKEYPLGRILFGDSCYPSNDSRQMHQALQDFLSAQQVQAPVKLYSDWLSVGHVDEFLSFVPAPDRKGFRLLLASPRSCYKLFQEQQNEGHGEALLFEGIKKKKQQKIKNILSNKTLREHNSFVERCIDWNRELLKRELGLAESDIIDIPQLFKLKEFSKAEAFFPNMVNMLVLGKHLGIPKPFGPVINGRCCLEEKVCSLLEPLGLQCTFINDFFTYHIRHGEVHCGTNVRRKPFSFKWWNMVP

IC50 [nM]	SMILES
72	COc1cc(C(=O)N2C[C@H]3CC[C@@H]2[C@@H]3N)cc2nc(-c3cc4cccnc4n3CC3CC3)n(CC3CN(c4cncnc4)C3)c12 [Example 27, (1R,4R,7R)-2-{2-[1-(cyclopropylmethyl)-1H-pyrrolo[2,3-b]pyridin-2-yl]-7-methoxy-1-{[1-(pyrimidin-5-yl)azetidin-3-yl]methyl}-1H-1,3-benzodiazole-5-carbonyl}-2-azabicyclo[2.2.1]heptan-7-amine]
55	CCn1cc(Cn2c(-c3cc4cccnc4n3CC3CC3)nc3cc(C(=O)N4CC5CCC4[C@@H]5N)cc(OC)c32)cn1 (stereo partly drawn) [Example 489, (7R)-2-{2-[1-(cyclopropylmethyl)-1H-pyrrolo[2,3-b]pyridin-2-yl]-1-[(1-ethyl-1H-pyrazol-4-yl)methyl]-7-methoxy-1H-1,3-benzodiazole-5-carbonyl}-2-azabicyclo[2.2.1]heptan-7-amine]
54	COc1cc(C(=O)N2C[C@H]3CC[C@@H]2[C@@H]3N)cc2nc(-c3cc4cccnc4n3CC3CC3)n(CC3CN(C(=O)C4CCC4)C3)c12 [Example 114, (1R,4R,7R)-2-{1-[(1-cyclobutanecarbonylazetidin-3-yl)methyl]-2-[1-(cyclopropylmethyl)-1H-pyrrolo[2,3-b]pyridin-2-yl]-7-methoxy-1H-1,3-benzodiazole-5-carbonyl}-2-azabicyclo[2.2.1]heptan-7-amine]
197	COc1cc(C(=O)N2CC3CCC2[C@@H]3N)cc2nc(-c3cc4cccnc4n3CC3CC3)n(CC3CN(S(=O)(=O)c4ccccc4)C3)c12 (stereo partly shown) [Example 326]
86	COc1cc(C(=O)N2C[C@H]3CC[C@@H]2[C@@H]3N)cc2nc(-c3cc4cccnc4n3CC3CC3)n(CC3CN(c4ncc(Br)cn4)C3)c12 [Example 32, (1R,4R,7R)-2-(1-{[1-(5-bromopyrimidin-2-yl)azetidin-3-yl]methyl}-2-[1-(cyclopropylmethyl)-1H-pyrrolo[2,3-b]pyridin-2-yl]-7-methoxy-1H-1,3-benzodiazole-5-carbonyl)-2-azabicyclo[2.2.1]heptan-7-amine]
148	COC(=O)N1CC(Cn2c(-c3cc4cccnc4n3CC3CC3)nc3cc(C(=O)N4C[C@H]5CC[C@@H]4[C@@H]5N)cc(OC)c32)C1 [Example 132, methyl 3-({5-[(1R,4R,7R)-7-amino-2-azabicyclo[2.2.1]heptane-2-carbonyl]-2-[1-(cyclopropylmethyl)-1H-pyrrolo[2,3-b]pyridin-2-yl]-7-methoxy-1H-1,3-benzodiazol-1-yl}methyl)azetidine-1-carboxylate]
41	N[C@@H]1[C@@H]2CC[C@H]1N(C(=O)c1cc(Cl)c3c(c1)nc(-c1cc4cccnc4n1CC1CC1)n3CC1CN(C(=O)c3ccccc3)C1)C2 [Example 89, (3-((5-((1R,4R,7R)-7-amino-2-azabicyclo[2.2.1]heptane-2-carbonyl)-7-chloro-2-(1-(cyclopropylmethyl)-1H-pyrrolo[2,3-b]pyridin-2-yl)-1H-benzo[d]imidazol-1-yl)methyl)azetidin-1-yl)(phenyl)methanone]
2660	COc1cc(C(=O)N2C[C@H](N)C[C@@H](F)C2)cc2nc(-c3cc4ccccc4n3CC3CC3)n(Cc3ccccn3)c12 [Example 293, (3R,5R)-1-{2-[1-(cyclopropylmethyl)-1H-indol-2-yl]-7-methoxy-1-[(pyridin-2-yl)methyl]-1H-1,3-benzodiazole-5-carbonyl}-5-fluoropiperidin-3-amine]
21	COc1ccc(C(=O)N2CC(Cn3c(-c4cc5ccccc5n4CC4CC4)nc4cc(C(=O)N5C[C@H]6CC[C@@H]5[C@@H]6N)cc(OC)c43)C2)cc1 [Example 153, (1R,4R,7R)-2-{2-[1-(cyclopropylmethyl)-1H-indol-2-yl]-7-methoxy-1-{[1-(4-methoxybenzoyl)azetidin-3-yl]methyl}-1H-1,3-benzodiazole-5-carbonyl}-2-azabicyclo[2.2.1]heptan-7-amine]
48	COc1cc(C(=O)N2C[C@H](N)CC[C@@H]2C)cc2nc(-c3cc4ccccc4n3CC3CC3)n(Cc3cnn(C)c3)c12 [Example 251, ((2S,5R)-5-amino-2-methylpiperidin-1-yl)(2-(1-(cyclopropylmethyl)-1H-indol-2-yl)-7-methoxy-1-((1-methyl-1H-pyrazol-4-yl)methyl)-1H-benzo[d]imidazol-5-yl)methanone]
237	COc1cc(C(=O)N2C[C@H]3CC[C@@H]2[C@@H]3N)cc2nc(-c3cc4cccnc4n3CC3CC3)n(CC3CCN(C(=O)c4ccnc(Cl)n4)CC3)c12 [Example 230, (1R,4R,7R)-2-(1-{[1-(2-chloropyrimidine-4-carbonyl)piperidin-4-yl]methyl}-2-[1-(cyclopropylmethyl)-1H-pyrrolo[2,3-b]pyridin-2-yl]-7-methoxy-1H-1,3-benzodiazole-5-carbonyl)-2-azabicyclo[2.2.1]heptan-7-amine]
9	COc1cc(C(=O)N2C[C@H]3CC[C@@H]2[C@@H]3N)cc2nc(-c3cc4ccccc4n3CC3CC3)n(CC3CN(C(=O)c4ccc(C#N)cc4)C3)c12 [Example 91, 4-[3-({5-[(1R,4R,7R)-7-amino-2-azabicyclo[2.2.1]heptane-2-carbonyl]-2-[1-(cyclopropylmethyl)-1H-indol-2-yl]-7-methoxy-1H-1,3-benzodiazol-1-yl}methyl)azetidine-1-carbonyl]benzonitrile]
582	COC(=O)N[C@H]1C[C@H](n2c(-c3cc4cccnc4n3CC3CC3)nc3cc(C(=O)N4CC5CCC4[C@@H]5N)cc(OC)c32)C1 (stereo partly drawn) [Example 296, methyl N-[(1r,3r)-3-{5-[(1R,4R,7R)-7-amino-2-azabicyclo[2.2.1]heptane-2-carbonyl]-2-[1-(cyclopropylmethyl)-1H-pyrrolo[2,3-b]pyridin-2-yl]-7-methoxy-1H-1,3-benzodiazol-1-yl}cyclobutyl]carbamate]
25	COc1cc(C(=O)N2CC3CCC2[C@@H]3N)cc2nc(-c3cc4ccccc4n3CC3CC3)n(CC3CN(C(=O)[C@@H]4C[C@H]4c4ccccc4)C3)c12 (stereo partly drawn) [Example 162, (1R,4R,7R)-2-{2-[1-(cyclopropylmethyl)-1H-indol-2-yl]-7-methoxy-1-({1-[(1R,2R)-2-phenylcyclopropanecarbonyl]aze-tidin-3-yl}methyl)-1H-1,3-benzodiazole-5-carbonyl}-2-azabicyclo[2.2.1]heptan-7-amine]
31	COc1cc(C(=O)N2CC3CCC2[C@@H]3N)cc2nc(-c3cc4ccccc4n3CC3CC3)n(CC3CN(C(=O)c4ccn(C)c(=O)c4)C3)c12 (stereo partly drawn) [Example 433, 4-[3-({5-[(7R)-7-amino-2-azabicyclo[2.2.1]heptane-2-carbonyl]-2-[1-(cyclopropylmethyl)-1H-indol-2-yl]-7-methoxy-1H-1,3-benzodiazol-1-yl}methyl)azetidine-1-carbonyl]-1-methyl-1,2-dihydropyridin-2-one]

SMILES	IC50 [nM]
COc1cc(C(=O)N2C[C@H]3CC[C@@H]2[C@@H]3N)cc2nc(-c3cc4ccccc4n3CC3CC3)n(C[C@H]3CCN(c4ccnc(C5CC5)n4)C3)c12 [Example 227, (1R,4R,7R)-2-{2-[1-(cyclopropylmethyl)-1H-indo1-2-yl]-1-{[(3S)-1-(2-cyclopropylpyrimidin-4-yl)pyrrolidin-3-yl]methyl}-7-methoxy-1H-1,3-benzodiazole-5-carbonyl}-2-azabicyclo[2.2.1]heptan-7-amine]	41

Source: patent US12692254B2, “Benzimidazole inhibitors of PAD enzymes” (BRISTOL-MYERS SQUIBB COMPANY, priority 2018, dated 2026)
